Our source for the melting point values is a melting point compilation (Tetko et al.; mined from patent text by program, amines drawn as free bases though some values may be those of a salt).

Molecules are shown by their SMILES.

In general, melting point refers to the temperature, or range, at which the solid turns liquid. In turn, `CC1(C)C2CC=C(c3ccc(C(=O)N4Cc5cccn5Cc5ccccc54)cc3)C1C2` (centres undefined) returned a melting point of 118 to 119 °C. `CC(=O)c1cc(Cl)ccc1NS(=O)(=O)C(F)(F)F` came in with a melting point of 36 to 38 °C. In turn, `CCC(CC)N(Cc1ccc(C(=O)OC)cn1)S(=O)(=O)c1ccc(F)cc1` returned a melting point of 117 to 119 °C. Next, `O=C1C(c2ccccc2)=C(c2ccccc2)C(=O)N1Cc1ccccc1`: 123 to 124 °C. `CC(C)CCc1c(C(C)C)nc(C(C)C)c(CO)c1-c1ccc(F)cc1` had a melting point of 43 to 45 °C. `CC(=C1SCCCS1)c1ccc(N2CCN(C)CC2)cc1` had a melting point of 91 to 92 °C.

The molecule `Cn1cc(C2=C(c3cn(CCCC#N)c4ccccc34)C(=O)NC2=O)c2ccccc21` yielded a melting point of 245 to 247 °C. In the case of `COc1ccc(C2C(C(=O)/C=C/c3ccc(OCc4ccccc4)c(OC)c3)C(=O)CC(c3ccc(OCc4ccccc4)cc3)C2[N+](=O)[O-])cc1` (centres undefined), the melting point fell in the range of 76 to 78 °C. `CNC(=O)Cn1nc(-c2ccc(OC)cc2)cc(C(=O)NC)c1=O` registered a melting point of 250 to 251 °C. For the molecule `O=C(O)[C@H](Cc1ccc(C(F)(F)F)cc1)[C@@H](O)c1ccoc1` (racemic), the melting point was 104 to 105 °C. In the case of `COC(=O)c1cccc(/C=C/c2ccccc2)c1`, the melting point was in the range of 108 to 109 °C. For the molecule `CC1(C)C=Cc2c(cc(O)c3c(=O)c4cc5ccccc5cc4[nH]c23)O1`, the melting point was 225 °C. On to `c1ccc(Cn2c3ccccc3c3cc(-c4nc(C5CC5)no4)sc32)cc1`, for which the melting point was in the range of 140 to 141 °C.

As to `CC1=C(C(=O)OC(C)C)C(c2cccc([N+](=O)[O-])c2)c2c(nc(N3CCOCC3)nc2N2CCOCC2)N1` (centres undefined), the melting point came out at 229 °C. Turning to `CCOC(=O)C1(C)ON=C(C2(C)CC(c3ccc(OC)c(OC4CCCC4)c3)=NO2)O1` (centres undefined), the melting point was 139 to 140 °C. In turn, `CCCN=C(Cc1ccccc1)N1CC2C(=O)CCC(c3ccccc3)(c3ccccc3)C2C1` (centres undefined) registered a melting point of 86 °C. Consider `Oc1c2c(nn1-c1ncccc1C(F)(F)F)CCc1ccccc1-2`, for which the melting point is 174 to 175 °C. Consider `Cn1ncnc1COc1nc2c(cc1-c1cccs1)nnn2-c1ccccc1F`, for which the melting point is 160 to 162 °C. `CCOc1c(Nc2ccncc2)c(=O)c1=O` registered a melting point of 120 to 125 °C.

As for `N#CNC(=NCCc1ccccc1Cl)c1cncc(NCc2ccccc2)c1`, the melting point amounted to 146 °C. Regarding `O=C(O)C(O)=CC(=O)c1cn(Cc2ccc(C(F)(F)F)cc2)c(=O)n(Cc2ccc(C(F)(F)F)cc2)c1=O`, the melting point is 176 to 178 °C.

For the molecule `CC1CN(C)CC=C1C(=O)N1c2ccccc2NC(=O)c2ccccc21` (centres undefined), the melting point was 223 to 224 °C. Next, `COCCNCCC(=O)Nc1nc(-c2ccccc2)c(-c2ccc(=O)n(C(C)C)n2)s1`: 167 to 168 °C; `O=C(O)c1ccc2nc(-c3ccc(F)cc3)[nH]c(=O)c2c1`: 397 to 399 °C.

The molecule `COC(=O)CCCCCCCCOC1OC(CO)C(O)C(OC2OC(CO)C(O)C(O)C2O)C1OC1OC(C)C(O)C(O)C1O` (centres undefined) displayed a melting point of 147 to 150 °C. Consider `O=C1Nc2ccc(NC(=O)C(=O)N3CCC(Cc4ccccc4)CC3)cc2C1=O`, for which the melting point is 234 to 236 °C. In the case of `COc1ccc2oc3ccc([N+](=O)[O-])cc3c2c1C(=O)Nc1cccnc1`, the melting point was in the range of 263 to 266 °C.

Regarding `NNC(=O)c1ccc2occ(-c3cc(F)ccc3F)c2c1`, the melting point was 198 to 199 °C. The same measure for `Cc1cccc(NC(=O)NC2N=C(c3ccccc3)c3ccsc3N(C)C2=O)c1` (centres undefined): 128 to 130 °C; for `O=c1cc(O)n(-c2cccc(C(F)(F)F)c2)nc1-c1ccnn1-c1ccccc1`: 241 to 243 °C; for `CCOC(=O)c1cn(CC)c2nc(N3CCN(Cc4ccc(Cl)cc4)CC3)ncc2c1=O`: 150 °C. In the case of `N#Cc1cc(-c2ccoc2)c2ccc(OCc3cncc(-c4ccccc4)c3)cc2c1`, the melting point lay in the range of 138 to 140 °C. Take `O=C(O)Cc1ccc(NC(=O)C(Cn2ccnc2)NS(=O)(=O)c2ccc(F)cc2)cc1` (racemic): the melting point was in the range of 162 to 165 °C. With `O=C1c2c(-c3ccccc3)noc2CCC1CCCN1CCOCC1` (centres undefined), the melting point was 86 to 88.5 °C.

`COCCOC(=O)c1cc(C(=O)NOC)c(O)c2ncc(Cc3ccc(F)cc3)cc12` displayed a melting point of 166 to 168 °C.

Molecule `COc1c(Cl)ccc(-c2cc(N)c(Cl)c(C(=O)NOCc3cncs3)n2)c1F` yielded a melting point of 179 to 181 °C. The same measure for `CCCOc1cc(NC(=O)C[C@H]2O[C@H](c3cccc(OC)c3OC)c3cc(Cl)ccc3N(CC(C)(C)COC(C)=O)C2=O)cc2cc(C(=O)OC)oc12`: 146 to 147 °C; for `CCN1C(=O)Nc2ccc(Cl)cc2C1(C#CC1(C)CC1)C(F)(F)F` (centres undefined): 219 to 222 °C; for `CC(C)n1nc(-c2cnc(NCc3ccccn3)nc2-c2ccccc2)ccc1=O`: 143 to 144 °C.

For the molecule `CCCCCCOc1ccc(C(=O)NCC2CCCC2(C)C)cc1` (single isomer, unassigned; (+)), the melting point fell in the range of 68 to 69 °C. The same measure for `COc1ccc(NS(C)(=O)=O)cc1C(=O)O`: 160 to 163 °C. Consider `COc1ccc(CN(C)CCC2CN(C)C(=S)c3cccnc3O2)cc1` (centres undefined), for which the melting point lay within 128 to 130 °C.

Turning to `OCCC[C@H]1OC[C@H](c2ccc(Cl)c3ccccc32)CO1`, the melting point was in the range of 127 to 129 °C.

Molecule `CCC(=O)Nc1cc(-c2cccnc2)nc(-c2ccco2)n1` displayed a melting point of 252 to 253 °C.

`CN1C(=O)c2cc(N)ccc2Oc2ncccc21` showed a melting point of 158 to 160 °C. `C#CC1(O)CCC2C3CCC4CC=CCC4C3CCC21C` (centres undefined) yielded a melting point of 108 to 109 °C. As to `O=C(O)Cc1ccc2c(c1)C(=O)CC2`, the melting point is 133 to 135 °C. As for `CCOC(=O)c1c(NCc2ccc(OC)c(Cl)c2)ccnc1Cl`, the melting point was 116 to 118 °C. The molecule `CCCCCCCN(CC1(c2ccccc2)CCCC1)C(=O)Nc1ccc(F)cc1F` had a melting point of 88 to 90 °C. In turn, `Cc1sc2c(c1C)C(C1CCCCC1)=NCC(=O)N2` had a melting point of 205 °C.

In turn, `O=C(CS(=O)(=O)c1ccccc1)NNC(=O)N1Cc2ccccc2Oc2ccc(Cl)cc21` showed a melting point of 180 to 183 °C. Next, `Cc1c(CC(=O)O)oc2ccc(C(C)(C)C)cc12`: 169 to 170 °C; `O[C@@H](CNCCOc1ccc2oc(-c3ccon3)cc2c1)COc1ccccc1C(F)(F)F`: 90 to 91 °C; `COc1ccc2c(c1)CN(c1ccc3sccc3c1)C2=O`: 183 to 186 °C. Molecule `COc1ccc(Cc2sc3ccccc3c2-c2ccc(-c3ccc(OC(Cc4ccccc4)C(=O)O)cc3)cc2)cc1OC` (centres undefined) registered a melting point of 59 to 61 °C. Next, `CCc1[nH]n(C2CCCC2)c2nc(-c3cc(OCCN4CCOCC4)cc(OCCN4CCOCC4)c3)nc(=O)c1-2`: 182 to 183 °C; `CC(=O)NCCC1=CCc2ccc3c(c21)CCO3`: 153 to 155 °C. `Cn1ncc(-c2ccnc(Cl)n2)c1-c1ccc(Cl)cc1Cl` had a melting point of 122 to 125 °C.

For `Fc1cc(F)c(-c2ccccc2)c(F)c1F`, the melting point is 86 to 88 °C. Next, `CC(C)CCNc1ccccc1NCC12CC3CC(CC(C3)C1)C2`: 64 to 65 °C. Consider `CCS(=O)(=O)N[C@H](C(=O)NCc1ccc(OCc2ccccc2)c(OC)c1)C(C)C`, for which the melting point lay within 141 to 152 °C. The same measure for `COc1cc2c(cc1C(C)(C)c1ccccc1)OCO2`: 75 to 76 °C. As to `CCCc1c(O)c(C(=O)O)cc(Cl)c1OCCCCCCc1cccc(O)c1O`, the melting point was in the range of 110 to 113 °C.

`CCc1c(OC)nc2nc(C(=N)NO)cn2c1C` returned a melting point of 249 to 250 °C. As to `O=C1C(O)=C(C2CCCCC2)C(=O)c2ccccc21`, the melting point was in the range of 128 to 130 °C. In turn, `CSc1sc(C2NCCO2)c2c1C(=O)CC(C)(C)C2` (centres undefined) gave a melting point of 190 to 193 °C. As for `COC(=O)C[C@H](O)CC(=O)C=Cc1c(-c2ccc(F)cc2)c(-c2ccc(F)cc2)c(C(=O)NCc2cccc(OC)c2)n1C(C)C`, the melting point fell in the range of 104 to 116 °C. In turn, `FC(F)(F)C(F)(F)C(F)(F)C(F)(F)C(F)(F)C(F)(F)C(F)(F)C(F)(F)C(F)(F)Br` showed a melting point of 30 °C. `COc1ccccc1N1CCN(CCn2c(=O)[nH]c3sc(C)c(C)c3c2=O)CC1` yielded a melting point of 196 to 197 °C. In turn, `C=CCN1C2CCC1C1CCC2N1C(c1ccc(C(=O)N(C)C)cc1)c1cccc(OC)c1` (centres undefined) registered a melting point of 100 to 103 °C.

`CCOC(=O)C(NC(=O)OCc1ccccc1)C(=O)O` (centres undefined): the melting point lay in the range of 65 to 70 °C. The same measure for `Cc1oc(-c2ccccc2)nc1CCC(O)c1ccc(CCC2OC(=O)NC2=O)cc1` (centres undefined): 145 to 146 °C.

The molecule `COc1cc2c(cc1OC)-c1ncc(C(=O)O)c(=O)n1CC2` returned a melting point of 264 to 266 °C. `C[C@@H]1Cc2cc3c(cc2C(c2ccc([N+](=O)[O-])cc2)=NN1c1cnns1)OCO3` registered a melting point of 175 to 176 °C. For the molecule `C=C(C(=O)N1CCOCC1)c1cccc(-c2cc3c(cc2C)C(C)(C)CCC3(C)C)c1`, the melting point is 158 to 159 °C. For the molecule `Nc1c(OCc2ccccc2)cc(Br)cc1[N+](=O)[O-]`, the melting point amounted to 90 °C. Next, `Cc1nc(-c2ccc(CN3C(=O)C4(COc5cc6c(cc54)OCCO6)c4ccccc43)cc2)no1` (centres undefined): 174 to 175 °C. Regarding `CCCN1C(=O)c2cnc(-c3ccccc3)nc2N(C(=O)CN2CCN(C)CC2)c2ccccc21`, the melting point lay in the range of 148 to 150 °C. `CCOC(=O)C1=C(C)NC(N)=C(C(=O)OC(C)C)C1c1cccc([N+](=O)[O-])c1` (centres undefined) registered a melting point of 175 to 176 °C. The molecule `Clc1ccc2nc(-c3ccccc3)n(CCCN3CCN(C(c4ccccc4)c4ccccc4)CC3)c2c1` came in with a melting point of 198 °C. On to `Cc1ccc(S(=O)(=O)On2nnc3ccc([N+](=O)[O-])cc32)cc1`, for which the melting point lay in the range of 142 to 144 °C. Consider `O=C(O)C(O)c1csc2ccccc12` (centres undefined), for which the melting point is 89 to 91 °C.

As for `Cc1cn2cccc(C=Cc3ccccc3)c2n1`, the melting point lay in the range of 101 to 105 °C. In turn, `COC1CCC(=O)N1S(=O)(=O)C=Cc1ccccc1` (centres undefined) showed a melting point of 98 to 99 °C.
